Measurements as given in publication PMC6440567 (Clinical and Translational Science, 2018).

What was measured:
[1] = Final ceftazidime PopPK model; assay type: in vivo, human
[2] = Individual predicted steady‐state exposures; assay type: in vivo, human; details: for AUC / Cmax: human, plasma
[3] = taken to be; ref not given; cited from earlier work

CC(C)(O/N=C(\C(=O)N[C@@H]1C(=O)N2C(C(=O)[O-])=C(C[n+]3ccccc3)CS[C@H]12)c1csc(N)n1)C(=O)O [Ceftazidime, ceftazidime]
lower V c ([1]; Asian compared with non‐Asian patients): 27% | lower CL ([1]; Chinese patients vs non‐Asians): 9% | Slope 1: CrCL < 100 mL/min, slope1*CrCL ([1]; CrCL effect on CL): 0.0103 | lower V c ([1]; body weight at 10th percentile (50 kg) vs median weight (70 kg)): 24% | clearance ([1]; human, plasma, intravenous, θ1: CL, typical value): 116 mL/min | θ9: Population effect on V c (cUTI) ([1]; in vivo): 1.03 | θ10: Population effect on V c (cIAI or NP) ([1]; in vivo): 1.14 | θ13: WT effect on V c ([1]; in vivo): 1.01 | θ14: Population effect on V c (NPv) ([1]; in vivo): 0.297 | lower CL ([1]; non‐Chinese, non‐Japanese Asians vs non‐Asians): 16% | higher V c ([1]; patients with NPv vs non‐NPv patients): 29.7% | higher CL ([1]; patients with cIAI vs. healthy subjects and patients with cUTI): 16% | θ2: V c ([1]; typical value): 10.5 L | θ3: Q ([1]; typical value): 31.5 L/h | θ4: V p ([1]; typical value): 7.57 L | AUC ([2]; AUCss,0–24 geometric mean (CV), Age (years) 18–65): 800 µg·h/mL | AUC ([2]; AUCss,0–24 geometric mean (CV), Age (years) > 65–75): 997 µg·h/mL | AUC ([2]; AUCss,0–24 geometric mean (CV), Age (years) > 75–89): 1100 µg·h/mL | AUC ([2]; AUCss,0–24 geometric mean (CV), Asian population: China (only)): 892 µg·h/mL | AUC ([2]; AUCss,0–24 geometric mean (CV), Asian population: Japan): 1020 µg·h/mL | AUC ([2]; AUCss,0–24 geometric mean (CV), Baseline WBC count Missing): 924 µg·h/mL | AUC ([2]; AUCss,0–24 geometric mean (CV), Concomitant use of OAT1/OAT3 inhibitor(s): No): 869 µg·h/mL | AUC ([2]; AUCss,0–24 geometric mean (CV), Concomitant use of OAT1/OAT3 inhibitor(s): Yes): 934 µg·h/mL | AUC ([2]; AUCss,0–24 geometric mean (CV), Fever at baseline: Missing): 929 µg·h/mL | AUC ([2]; AUCss,0–24 geometric mean (CV), Fever at baseline: No): 888 µg·h/mL | AUC ([2]; AUCss,0–24 geometric mean (CV), Fever at baseline: Yes): 859 µg·h/mL | AUC ([2]; AUCss,0–24 geometric mean (CV), Obesity I (29.9 ≤ BMI < 34.9 kg/m^2)): 841 µg·h/mL | AUC ([2]; AUCss,0–24 geometric mean (CV), Obesity II (34.9 ≤ BMI < 39.9 kg/m^2)): 894 µg·h/mL | AUC ([2]; AUCss,0–24 geometric mean (CV), Obesity III (BMI ≥ 39.9 kg/m^2)): 806 µg·h/mL | AUC ([2]; AUCss,0–24 geometric mean (CV), Obesity: Missing): 959 µg·h/mL | AUC ([2]; AUCss,0–24 geometric mean (CV), Obesity: Normal): 878 µg·h/mL | AUC ([2]; AUCss,0–24 geometric mean (CV), Race: Asian (non‐Chinese; non‐Japanese)): 968 µg·h/mL | AUC ([2]; AUCss,0–24 geometric mean (CV), Race: Chinese and Taiwanese): 884 µg·h/mL | AUC ([2]; AUCss,0–24 geometric mean (CV), Race: Japanese): 1020 µg·h/mL | AUC ([2]; AUCss,0–24 geometric mean (CV), Race: White/other): 848 µg·h/mL | Cmax ([2]; C max,ss geometric mean (CV), Age (years) 18–65): 70 µg/mL | Cmax ([2]; C max,ss geometric mean (CV), Age (years) > 65–75): 77.1 µg/mL | Cmax ([2]; C max,ss geometric mean (CV), Age (years) > 75–89): 76.8 µg/mL | Cmax ([2]; C max,ss geometric mean (CV), Asian population: China (only)): 78.4 µg/mL | Cmax ([2]; C max,ss geometric mean (CV), Asian population: Japan): 90.4 µg/mL | Cmax ([2]; C max,ss geometric mean (CV), Asian population: Korea): 79.9 µg/mL | Cmax ([2]; C max,ss geometric mean (CV), Concomitant use of OAT1/OAT3 inhibitor(s): No): 71.7 µg/mL | Cmax ([2]; C max,ss geometric mean (CV), Concomitant use of OAT1/OAT3 inhibitor(s): Yes): 78.5 µg/mL | Cmax ([2]; C max,ss geometric mean (CV), Fever at baseline: Missing): 75.1 µg/mL | Cmax ([2]; C max,ss geometric mean (CV), Fever at baseline: No): 71.9 µg/mL | Cmax ([2]; C max,ss geometric mean (CV), Fever at baseline: Yes): 72.1 µg/mL | Cmax ([2]; C max,ss geometric mean (CV), Obesity I (29.9 ≤ BMI < 34.9 kg/m^2)): 67.9 µg/mL | Cmax ([2]; C max,ss geometric mean (CV), Obesity II (34.9 ≤ BMI < 39.9 kg/m^2)): 73.7 µg/mL | Cmax ([2]; C max,ss geometric mean (CV), Obesity III (BMI ≥ 39.9 kg/m^2)): 64.2 µg/mL | Cmax ([2]; C max,ss geometric mean (CV), Obesity: Missing): 70.9 µg/mL | Cmax ([2]; C max,ss geometric mean (CV), Obesity: Normal): 73 µg/mL | Cmax ([2]; C max,ss geometric mean (CV), Race: Asian (non‐Chinese; non‐Japanese)): 82.2 µg/mL | Cmax ([2]; C max,ss geometric mean (CV), Race: Chinese and Taiwanese): 77.6 µg/mL | Cmax ([2]; C max,ss geometric mean (CV), Race: Japanese): 90.4 µg/mL | Cmax ([2]; C max,ss geometric mean (CV), Race: White/other): 68.6 µg/mL | AUC ([2]; intravenous): 748 µg·h/mL | Cmax ([2]; intravenous): 67 µg/mL | AUC ([2]; intravenous, 187.5 mg, AUCss,0–24 geometric mean (CV), Day 3 CrCL 8–15 mL/min (750‐187.5 mg q24 h)): 551 µg·h/mL | Cmax ([2]; intravenous, 187.5 mg, C max,ss geometric mean (CV), Day 3 CrCL 8–15 mL/min (750‐187.5 mg q24 h)): 34.3 µg/mL | AUC ([2]; intravenous, 500 mg, AUCss,0–24 geometric mean (CV), Day 3 CrCL > 150–180 mL/min (2000‐500 mg q8 h)): 652 µg·h/mL | Cmax ([2]; intravenous, 500 mg, C max,ss geometric mean (CV), Day 3 CrCL > 150–180 mL/min (2000‐500 mg q8 h)): 58.5 µg/mL | AUC ([2]; intravenous, AUCss,0–24 geometric mean (CV), Asian population: Korea): 952 µg·h/mL | AUC ([2]; intravenous, AUCss,0–24 geometric mean (CV), Asian population: Taiwan): 728 µg·h/mL | AUC ([2]; intravenous, AUCss,0–24 geometric mean (CV), Asian population: Vietnam): 852 µg·h/mL | AUC ([2]; intravenous, AUCss,0–24 geometric mean (CV), Bacteremia at baseline: No): 881 µg·h/mL | AUC ([2]; intravenous, AUCss,0–24 geometric mean (CV), Bacteremia at baseline: Yes): 919 µg·h/mL | AUC ([2]; intravenous, AUCss,0–24 geometric mean (CV), Baseline APACHE II score > 10): 938 µg·h/mL | AUC ([2]; intravenous, AUCss,0–24 geometric mean (CV), Baseline APACHE II score Missing): 979 µg·h/mL | AUC ([2]; intravenous, AUCss,0–24 geometric mean (CV), Baseline WBC count (cells/μL) > 12,000): 801 µg·h/mL | AUC ([2]; intravenous, AUCss,0–24 geometric mean (CV), Baseline WBC count (cells/μL) ≤ 12,000): 923 µg·h/mL | AUC ([2]; intravenous, AUCss,0–24 geometric mean (CV), Patient population: NP): 950 µg·h/mL | AUC ([2]; intravenous, AUCss,0–24 geometric mean (CV), Patient population: Non‐VAP): 1020 µg·h/mL | AUC ([2]; intravenous, AUCss,0–24 geometric mean (CV), Patient population: VAP): 830 µg·h/mL | AUC ([2]; intravenous, AUCss,0–24 geometric mean (CV), Patient population: cIAI): 749 µg·h/mL | AUC ([2]; intravenous, AUCss,0–24 geometric mean (CV), Patient population: cUTI): 979 µg·h/mL | AUC ([2]; intravenous, AUCss,0–24 geometric mean (CV), SIRS at baseline: Missing): 977 µg·h/mL | AUC ([2]; intravenous, AUCss,0–24 geometric mean (CV), SIRS at baseline: No): 895 µg·h/mL | AUC ([2]; intravenous, AUCss,0–24 geometric mean (CV), SIRS at baseline: Yes): 869 µg·h/mL | Cmax ([2]; intravenous, C max,ss geometric mean (CV), Asian population: Taiwan): 59.4 µg/mL | Cmax ([2]; intravenous, C max,ss geometric mean (CV), Asian population: Vietnam): 78.6 µg/mL | Cmax ([2]; intravenous, C max,ss geometric mean (CV), Bacteremia at baseline: No): 71.9 µg/mL | Cmax ([2]; intravenous, C max,ss geometric mean (CV), Bacteremia at baseline: Yes): 73.6 µg/mL | Cmax ([2]; intravenous, C max,ss geometric mean (CV), Baseline APACHE II score > 10): 72.3 µg/mL | Cmax ([2]; intravenous, C max,ss geometric mean (CV), Baseline APACHE II score Missing): 77.9 µg/mL | Cmax ([2]; intravenous, C max,ss geometric mean (CV), Baseline WBC count (cells/μL) > 12,000): 67.6 µg/mL | Cmax ([2]; intravenous, C max,ss geometric mean (CV), Baseline WBC count (cells/μL) ≤ 12,000): 74.6 µg/mL | Cmax ([2]; intravenous, C max,ss geometric mean (CV), Patient population: NP): 72.9 µg/mL | Cmax ([2]; intravenous, C max,ss geometric mean (CV), Patient population: Non‐VAP): 79 µg/mL | Cmax ([2]; intravenous, C max,ss geometric mean (CV), Patient population: VAP): 61.9 µg/mL | Cmax ([2]; intravenous, C max,ss geometric mean (CV), Patient population: cIAI): 66.9 µg/mL | Cmax ([2]; intravenous, C max,ss geometric mean (CV), Patient population: cUTI): 77.9 µg/mL | Cmax ([2]; intravenous, C max,ss geometric mean (CV), SIRS at baseline: Missing): 83.5 µg/mL | Cmax ([2]; intravenous, C max,ss geometric mean (CV), SIRS at baseline: No): 72.3 µg/mL | Cmax ([2]; intravenous, C max,ss geometric mean (CV), SIRS at baseline: Yes): 71.5 µg/mL | difference in steady‐state exposure vs. healthy volunteers ([2]; most patient subgroups): ≤ 20% | lower C max,ss ([2]; patients with VAP vs non‐VAP patients): ~ 20% | free plasma concentrations as % of total plasma concentrations [3]: 85%
